Cytotoxicity data for 38 compounds are collected here from ChEMBL document CHEMBL3507680, “University of Dundee, Gates Library screen for HepG2 cell viability”.

The nature of the data set: Human HepG2 cell viability assay in 384 well format. It is filed as toxicity, cell-based. Also on record: dose 125 nL, time 70.5 hour; cytotoxicity at 70.5 h: concentration not given beside the values. To be noted: HepG2 cells, read-out: Inhibition.
As for `CCc1nc(NC(=O)N(C)Cc2ccoc2)nn1C`, the cytotoxicity at 70.5 h was -1.12%.

Take `CN1C(=O)[C@H]2CC[C@@H]1CN(C(=O)c1nnc3n1CCCCC3)C2`: the cytotoxicity at 70.5 h is -6.73%. With `CCNC(=O)CN1CCCC(c2ccc(C(=O)O)cc2)C1` (stereo not drawn), the cytotoxicity at 70.5 h came out at 31.1%.

For `CC(NS(C)(=O)=O)C(=O)N(C)Cc1csc(-c2ccccc2)n1` (stereo not drawn), the cytotoxicity at 70.5 h was -13.9%. `CC1CCCCN1C(=O)c1coc(COc2cccc3cnccc23)n1` (stereo not drawn): the cytotoxicity at 70.5 h is -6.78%.

`Cc1ccccc1CSc1nc(N)cc(N2CCC(CC(N)=O)CC2)n1`: the cytotoxicity at 70.5 h was -3.38%. The result for `CC(=O)Nc1ccc(Cl)c(C(=O)N(C)C(C)c2ccon2)c1` (stereo not drawn) reads 5%; that for `CCC(CO)N(Cc1cccs1)C(=O)Cc1ccc(O)cc1` (stereo not drawn), 16.3%; that for `CN1[C@@H](c2ccccc2)[C@@H](C(=O)NCc2ccccn2)C[C@@]1(C)C(=O)O`, 23%. The figure for `Cc1ccc(-c2cn[nH]c2C2CCCN(c3cc(N)ncn3)C2)cc1` (stereo not drawn) is 5.4%; for `CS(=O)(=O)N1C[C@@H]2CC[C@H](C1)N(C(=O)CCc1ccsc1)C2` it is -2.59%. The figure for `Cc1nc(C)c(CC(=O)N2CCCN(CC3CC3)C(C(C)C)C2)c(=O)[nH]1` (stereo not drawn) is 0.531%; for `CCNc1ncc(C(=O)N2CCOC(CCCC(C)C)C2)cn1` (stereo not drawn) it is -7.7%. For `CC(C)N(Cc1ccc(C(F)(F)F)nc1)Cc1cnn(C)c1`, the cytotoxicity at 70.5 h was -6.85%. As to `Cc1cnccc1N1CCCN(C(=O)CCn2ccnc2C)CC1`, the cytotoxicity at 70.5 h was -3.98%.

Regarding `CN(CCc1cn[nH]c1)C(=O)C(c1ccc(F)cc1)N(C)C` (stereo not drawn), the cytotoxicity at 70.5 h was -9.33%. With `Cc1nc2c(c(=O)[nH]1)CN(C(=O)CCC1CCCN(C)C1)C2` (stereo not drawn), the cytotoxicity at 70.5 h is -4.89%. For the compound `Cn1c(-c2ccccc2Cl)nc2cc(C(=O)NC(CO)CO)cnc21`, the cytotoxicity at 70.5 h is -8.01%.

Turning to `OCCOCCNCC1(c2ccc(F)cc2)CCOC1` (stereo not drawn), the cytotoxicity at 70.5 h was -0.024%. For `CC(C)NC(=O)[C@@H]1C[C@@H](N)CN1C(=O)CCSCc1ccc(F)cc1`, the cytotoxicity at 70.5 h was -3.93%. Turning to `CC(COc1ccccc1)NCc1nncn1C1CCCCC1` (stereo not drawn), the cytotoxicity at 70.5 h is 7.54%. The result for `O=C(O)[C@@H]1CN(CC(=O)N2CCCCC2)C[C@H]1c1ccc(F)cc1` reads -2.52%; that for `Fc1cccc(-n2nc(C3CC3)nc2CCn2cnnn2)c1`, -3.9%. In the case of `Cc1ccc(CN(C)Cc2cnc(N3CCOCC3)s2)o1`, the cytotoxicity at 70.5 h turned out to be 22.4%.

Take `CN(Cc1cnccn1)C(=O)[C@@]12CNC[C@@H]1CN(Cc1ccccc1)C2`: the cytotoxicity at 70.5 h is -11.2%. The result for `O=C(Nc1cnc2n1CCCC2)C1CCNCC1` reads 26.5%; that for `CCc1cnc(C)nc1NC1CC(=O)N(CC2CCCCC2)C1` (stereo not drawn), -8.14%; that for `O=C1NCCN(C(=O)c2cn3ccsc3n2)C1Cc1ccccc1` (stereo not drawn), -5.01%.

With `O=C([C@@H]1CCCO1)N1CCC(Cn2cc(-c3ccsc3)nn2)CC1`, the cytotoxicity at 70.5 h was -7.52%. The result for `O=C(O)C1(Oc2ccc3ccccc3c2)CCN(c2ncccn2)CC1` reads -0.873%; that for `O=C(c1ccc(C(F)(F)F)cc1)N1C[C@@H](CN2CCCCC2)[C@@H](CO)C1`, 3.19%; that for `COc1nc2c(cc1C(=O)N(C)Cc1n[nH]c3c1CCCC3)CCC2`, -6.28%. The figure for `Cc1ccccc1N1CCN(C(=O)c2cnn(C(C)C)c2)C(C)C1` (stereo not drawn) is -4.79%; for `CCn1c(Cn2cncn2)nnc1C1CCN(C2CCNCC2)CC1` it is -5.11%; for `CCc1cc(N2CCN(C(C)=O)CC2)n2nc(C)c(C)c2n1` it is 10.6%.

For the compound `O=c1cc(CN2CC[C@@]3(O)CCCC[C@H]3C2)c2cccc3c2n1CCC3`, the cytotoxicity at 70.5 h is -11.8%.

As to `CCOc1ccc(CN2CC[C@@](C)(O)[C@@H](Cc3ccccc3)C2)cn1`, the cytotoxicity at 70.5 h is -1.83%. With `CCCOCC1CCN(C(=O)Cn2ncc(N3CCCC3)cc2=O)C1` (stereo not drawn), the cytotoxicity at 70.5 h was determined as 26.8%.
